Source: publication PMC9527342, “An in vitro assay for enzymatic studies on human ALG13/14 heterodimeric UDP-N-acetylglucosamine transferase” (Frontiers in Cell and Developmental Biology, 2022)
Where a chain is given by its changes, count along the chain named. In names and notes the source's numbering stands.

T1: recombinant human ALG13/14 complex (FLAG-ALG13-iso2/6His-ALG14) (Homo sapiens, UniProt Q96F25+Q9NP73)
T1 construct: pelB-FLAG-ALG13-iso2 (25 kDa on SDS-PAGE) and 6His-ALG14 (22 kDa) co-expressed in E. coli Rosetta (DE3); purified from Triton X-100 membrane extract by HisTrap and anti-FLAG; tags kept; heterodimer, 45-66 kDa on native PAGE
T1 sequence (Q9NP73 1-165 isoform Q9NP73-2): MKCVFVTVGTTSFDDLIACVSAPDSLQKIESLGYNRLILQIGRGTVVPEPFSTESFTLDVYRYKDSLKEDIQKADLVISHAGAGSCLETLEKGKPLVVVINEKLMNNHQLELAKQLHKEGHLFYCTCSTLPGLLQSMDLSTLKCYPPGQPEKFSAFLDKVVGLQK
T1 sequence (Q96F25 1-216): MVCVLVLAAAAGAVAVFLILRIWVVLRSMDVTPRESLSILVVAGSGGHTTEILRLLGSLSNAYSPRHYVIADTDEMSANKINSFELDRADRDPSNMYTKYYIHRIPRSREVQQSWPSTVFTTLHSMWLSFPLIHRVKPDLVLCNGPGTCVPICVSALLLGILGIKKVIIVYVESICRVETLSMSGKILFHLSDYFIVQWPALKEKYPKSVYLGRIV

T2: 6His-ALG14 (human ALG14) (human) (UniProt Q96F25)
T2 sequence: T1 sequence (Q96F25 1-216)

B1: FLAG-tagged ALG13-iso2 T141L (natural protein)
chain: T1 sequence (Q9NP73 1-165 isoform Q9NP73-2) with T141L

What was measured:
[1] = molecular target: T1, recombinant human ALG13/14 complex (FLAG-ALG13-iso2/6His-ALG14); assay: LC-MS (UPLC-ESI-MS) of acid-released glycans, Michaelis-Menten fit; type: biochemical; settings: acceptor 20-100 μM; 2 mM UDP-GlcNAc fixed; Tris/HCl pH 7.5, 0.3% NP-40, 23% glycerol, 37 °C, 15 min; no added metal; read-out: K m (apparent)
[2] = molecular target: T2, 6His-ALG14 (human ALG14) (human)

| Molecule | Km [1] | Relative activity (%): GnTase conversion rate of the mutant / that of the wild type, detergent extract of E. coli membranes, 0.1 ng/ul ALG13, 37°C, 15 min [2] |
| --- | --- | --- |
| CC(=O)N[C@H]1[C@@H](OP(=O)(O)OP(=O)(O)OCC[C@@H](C)CC/C=C(/C)CC/C=C(/C)CC/C=C(/C)CC/C=C(/C)CC/C=C(/C)CC/C=C(/C)CC/C=C(/C)CC/C=C(/C)CC/C=C(/C)CC/C=C(/C)CC/C=C(/C)CC/C=C(/C)CC/C=C(/C)CC/C=C(/C)CC/C=C(/C)CC/C=C(\C)CC/C=C(\C)CCC=C(C)C)O[C@H](CO)[C@@H](O)[C@@H]1O [Gn-PDol (C95)] | 94.1 ± 9.4 µM |  |
| B1 |  | 26% |
